Laboratory results as given in patent US7671077B2, “Neuroprotective small organic molecules, compositions and uses related thereto” (priority 2004, dated 2010).

What follows are compounds tested on midbrain dopaminergic neurons (assay: Dopamine (DA) uptake assay in primary midbrain cultures). Details: 20 μM.
Type: cell-based, rat
Procedure: Primary midbrain cultures were prepared from rat embryo ventral mesencephalon as described previously by Lin et al (1994). In brief, rostral mesencephalic tegmentum of embryonic day 16 rat embryos was collected in DMEM/F12 (Hyclone SH30023.01) containing 2 mM glutamine on ice, The tissue was treated with 0.1% trypsin in Hanks' balanced salt solution (HBSS, Gibco 14175-095) for 15 min at 37° C. and dissociated mechanically by mild trituration with a fire-polished glass pipet in growth medium plus 2% heat-inactivated fetal bovine serum (FBS). The growth medium consisted of equal volumes of Dulbecco's minimal essential medium DMEM (Gibco 12100-046) and HAM's F12 nutrient mixture (Gibco 21700-075) supplemented with 33 mM glucose, 13 mM sodium bicarbonate, 5 mM HEPES, 2 mM glutamine, 25 μg/ml insulin, 100 μg/ml transferrin, 60 μM putrescine, 20 nM progesterone, 30 nM sodium selenite, 5 U/ml penicillin G and 5 μg/ml streptomycin. 24-well tissue culture plate was coated by adding 15 μg/ml poly-1-ornithine hydrobromide solution at 0.5 ml/well, incubated at room temperature for 1 hr. The coating solution was removed and the well washed 3 times with distilled water and one wash with HBSS. The dissociated cells were plated onto polyornithine-coated wells at 250,000-350,000 trypan blue-excluding viable cells per well in 500 μl of above medium containing 1% FBS. After 3 h when most of the cells had adhered to the bottom of the well, the medium was replaced with 500 μl of fresh medium without FBS. A serial dilution of the sample to be assayed for trophic activity was added to each well in duplicate at the time of medium change or within 24 h thereafter. Unless otherwise stated, cultures were incubated at 37° C. without any further medium change up to 7 days. Primary hindbrain cultures were prepared as described for the midbrain cultures except that the rostral raphe region (instead of the rostral mesencephalon) was dissected and trypsinized for 20 (instead of 15) min.
[^3H]DA uptake was measured in cultures at day 7, and all the solutions were maintained at 37° C. The growth medium was removed, and the cultures were rinsed twice with 0.25 ml of uptake buffer, which consists of HBSS (Gibco 11201-092) supplemented with 28 mM glucose, 15 mM HEPES, 1 mM ascorbic acid (an antioxidant), and […] pargyline (a monoamine oxidase inhibitor). The cultures were then incubated with 0.25 ml of fresh uptake buffer containing 50 nM [^3H]DA (NEN/DuPont) for 20 min at 37° C. [^3H]DA uptake was stopped by removing the incubation mixture, and cells were then washed twice with 0.5 ml of the uptake buffer at room temperature. To release [^3H]DA from the cells, the cultures were lysed with 0.2 ml of 0.1 N NaOH for 1 h at room temperature, the lysate was then added to 1 ml of Microscint-20 (Packard 6013621), and counted for radioactivity in a microplate scintillation counter (Packard TopCount, NXT). Background values were obtained by adding to the uptake buffer 0.5 mM GBR-12909, a specific inhibitor of the high-affinity uptake pump of the dopaminergic neurons, and were usually <5% of the ^3H uptake in untreated control cultures. Forskolin (Fk, 25 μM) was employed as a positive control.

Compound	cytotoxicity in midbrain culture
O=C(/C=C/c1ccc(Br)cc1)Nc1ccc(S(=O)(=O)Nc2nc[nH]n2)cc1 [X′]	no cytotoxicity

Same assay, conditions: Rattus norvegicus, Neuron, compound concentration 0.3 μM; midbrain culture; read-out: DA uptake % of control

Compound	activity at 0.3 µM [%]
O=C(Nc1ccc(S(=O)(=O)Nc2nccs2)cc1)c1sc2cc(Cl)ccc2c1Cl [F′]	180

Same assay, conditions: Rattus norvegicus, Neuron, compound concentration 0.6 μM; midbrain culture; read-out: DA uptake % of control

Compound	activity at 0.6 µM [%]
O=C(/C=C/c1ccc(Br)cc1)Nc1ccc(S(=O)(=O)Nc2nc[nH]n2)cc1 [X′]	290
CC(C)(C)c1cc(Br)ccc1OCC(=O)Nc1ccc(S(=O)(=O)Nc2nccs2)cc1 [U′]	140
O=C(Nc1ccc(S(=O)(=O)Nc2nccs2)cc1)c1sc2cc(Cl)ccc2c1Cl [T′]	140

Same assay, conditions: Rattus norvegicus, Neuron, compound concentration 0.7 μM; midbrain culture; read-out: DA uptake % of control

Compound	activity at 0.7 µM [%]
Cc1cc(NS(=O)(=O)c2ccc(NC(=O)/C=C/c3c(Cl)cccc3Cl)cc2)no1 [I]	150
O=C(/C=C/c1cccc(Cl)c1)Nc1ccc(S(=O)(=O)Nc2nccs2)cc1 [M]	120

Same assay, conditions: Rattus norvegicus, Neuron, compound concentration 1.2 μM; midbrain culture; read-out: DA uptake % of control

Compound	activity at 1.2 µM [%]
O=C(/C=C/c1cccc([N+](=O)[O-])c1)Nc1ccc(S(=O)(=O)Nc2nccs2)cc1 [E′]	210

Same assay, conditions: Rattus norvegicus, Neuron, compound concentration 1.25 μM; midbrain culture; read-out: DA uptake % of control

Compound	activity at 1.25 µM [%]
O=C(CCN1C(=O)S/C(=C\c2ccc(Cl)cc2)C1=O)Nc1ccc(S(=O)(=O)Nc2nccs2)cc1 [S′]	150
O=C(/C=C/c1cc2c(cc1Br)OCO2)Nc1ccc(S(=O)(=O)Nc2nccs2)cc1 [W″]	330
O=C(/C=C/c1cccc(Cl)c1)Nc1ccc(S(=O)(=O)Nc2nc[nH]n2)cc1 [B′′′′′]	230
O=C(/C=C/c1ccccc1C(F)(F)F)Nc1ccc(S(=O)(=O)Nc2nc[nH]n2)cc1 [G″]	350
Cc1cccc(/C=C/C(=O)Nc2ccc(S(=O)(=O)Nc3nc[nH]n3)cc2)c1 [E″]	290
CCCOc1ccc(/C=C/C(=O)Nc2ccc(S(=O)(=O)Nc3nccs3)cc2)cc1OC [P′]	210
COc1ccc(/C=C/C(=O)Nc2ccc(S(=O)(=O)Nc3nccs3)cc2)c(Cl)c1OC [I″]	245
O=C(/C=C/c1ccccc1C(F)(F)F)Nc1ccc(S(=O)(=O)Nc2nccs2)cc1 [M″]	280
O=C(/C=C/c1c(Cl)cccc1Cl)Nc1ccc(S(=O)(=O)Nc2nccs2)cc1 [U′′′′]	290
O=C(/C=C/c1c(Cl)cccc1Cl)Nc1ccc(S(=O)(=O)Nc2nc[nH]n2)cc1 [H″]	260
COc1cccc(/C=C/C(=O)Nc2ccc(S(=O)(=O)Nc3nnc[nH]3)cc2)c1 [R′′′]	150
O=C(/C=C/c1ccc(O)cc1)Nc1ccc(S(=O)(=O)Nc2ccccn2)cc1 [L′′′]	130
O=C(/C=C/c1cc(F)ccc1C(F)(F)F)Nc1ccc(S(=O)(=O)Nc2nccs2)cc1 [L″]	375

Same assay, conditions: Rattus norvegicus, Neuron, compound concentration 2.5 μM; midbrain culture; read-out: DA uptake % of control

Compound	activity at 2.5 µM [%]
Cc1ccccc1/C=C/C(=O)Nc1ccc(S(=O)(=O)Nc2nc[nH]n2)cc1 [D′′′′′]	260
Cc1cccc(/C=C/C(=O)Nc2ccc(S(=O)(=O)Nc3nccs3)cc2)c1 [G′′′′]	220
O=C(/C=C/c1ccccc1Cl)Nc1ccc(S(=O)(=O)Nc2ncccn2)cc1 [C′]	140
O=C(/C=C/c1ccccc1[N+](=O)[O-])Nc1ccc(S(=O)(=O)Nc2nccs2)cc1 [P′′′′]	150
CC(C)(C)c1ccc(C(=O)Nc2ccc(S(=O)(=O)Nc3nccs3)cc2)cc1 [H]	150
O=C(/C=C/c1ccccc1F)Nc1ccc(S(=O)(=O)Nc2nccs2)cc1 [A′′′′]	170
COc1ccccc1/C=C/C(=O)Nc1ccc(S(=O)(=O)Nc2nc[nH]n2)cc1 [Y″]	180
CN(C)c1ccc(C(=O)Nc2ccc(S(=O)(=O)Nc3nccs3)cc2)cc1 [E′′′]	130
O=C(Nc1ccc(S(=O)(=O)Nc2nccs2)cc1)c1cc2ccccc2o1 [E′′′′]	260
Cc1ccc(/C=C/C(=O)Nc2ccc(S(=O)(=O)Nc3ccccn3)cc2)cc1 [C′′′′]	160
COc1ccccc1/C=C/C(=O)Nc1ccc(S(=O)(=O)Nc2nccs2)cc1 [K′′′]	170
Cc1ccc(/C=C/C(=O)Nc2ccc(S(=O)(=O)Nc3nccs3)cc2)cc1 [E]	260
O=C(/C=C/c1ccc(Br)cc1)Nc1ccc(S(=O)(=O)Nc2nccs2)cc1 [O″]	290
O=C(/C=C/c1ccc(F)cc1C(F)(F)F)Nc1ccc(S(=O)(=O)Nc2nc[nH]n2)cc1 [Q″]	270
O=C(/C=C/c1cccc(F)c1)Nc1ccc(S(=O)(=O)Nc2nccs2)cc1 [I′′′′]	200
COc1cccc(/C=C/C(=O)Nc2ccc(S(=O)(=O)Nc3nccs3)cc2)c1 [J′′′]	140
CCOc1ccccc1/C=C/C(=O)Nc1ccc(S(=O)(=O)Nc2nccs2)cc1 [R′′′′]	170
O=C(/C=C/c1cccc(O)c1)Nc1ccc(S(=O)(=O)Nc2nncs2)cc1 [V′′′]	160
O=C(Nc1ccc(S(=O)(=O)Nc2nccs2)cc1)c1cc2ccccc2[nH]1 [K′′′′]	150

Same assay, conditions: Rattus norvegicus, Neuron, compound concentration 5 μM; midbrain culture; read-out: DA uptake % of control

Compound	activity at 5 µM [%]
O=C(Nc1ccc(S(=O)(=O)Nc2nccs2)cc1)c1ccc(Br)cc1 [P]	160
O=C(/C=C/c1ccc([N+](=O)[O-])cc1)Nc1ccc(S(=O)(=O)Nc2nccs2)cc1 [T′′′′]	180
O=C(CCN1C(=O)S/C(=C\c2ccccc2)C1=O)Nc1ccc(S(=O)(=O)Nc2nccs2)cc1 [Q′]	180
C/C(O)=C\C(=N)NS(=O)(=O)c1ccc(NC(=O)/C=C/c2ccccc2)cc1 [X′′′]	140

Same assay, conditions: Rattus norvegicus, Neuron, compound concentration 10 μM; midbrain culture; read-out: DA uptake % of control

Compound	activity at 10 µM [%]
CCc1nnc(NS(=O)(=O)c2ccc(NC(=O)c3ccccc3F)cc2)s1 [Compound Z]	150
COc1cccc(/C=C/C(=O)Nc2ccc(S(=O)(=O)Nc3ccccn3)cc2)c1 [N′′′]	180
COc1cccc(C(=O)Nc2ccc(S(=O)(=O)Nc3nccs3)cc2)c1 [F′′′]	140
COc1ccc(/C=C/C(=O)Nc2ccc(S(=O)(=O)Nc3nnc[nH]3)cc2)cc1 [S′′′]	190
CCCCCCCC(=O)Nc1ccc(S(=O)(=O)Nc2nccs2)cc1 [W′]	200
O=C(/C=C/c1ccccc1O)Nc1ccc(S(=O)(=O)Nc2nccs2)cc1 [P′′′]	150
CCOc1ccc(C(=O)Nc2ccc(S(=O)(=O)Nc3nccs3)cc2)cc1 [L]	160
O=C(/C=C/c1ccccc1O)Nc1ccc(S(=O)(=O)Nc2ccccn2)cc1 [O′′′]	150

Same assay, conditions: Rattus norvegicus, Neuron, compound concentration 20 μM; midbrain culture; read-out: DA uptake % of control

Compound	activity at 20 µM [%]
COc1cc(OC)cc(C(=O)Nc2ccc(S(=O)(=O)Nc3nccs3)cc2)c1 [J]	150
O=C(Nc1ccc(S(=O)(=O)Nc2nccs2)cc1)c1ccc(F)c(F)c1 [F]	180
O=C(/C=C/c1ccoc1)Nc1ccc(S(=O)(=O)Nc2nccs2)cc1 [N″]	240
CCc1nnc(NS(=O)(=O)c2ccc(NC(=O)c3ccc(Cl)cc3)cc2)s1 [X]	140
COc1ccc(/C=C/C(=O)Nc2ccc(S(=O)(=O)Nc3ccccn3)cc2)cc1 [H′′′]	180
O=C(COc1ccc(Cl)cc1)Nc1ccc(S(=O)(=O)Nc2nccs2)cc1 [Compound D]	210
O=C(/C=C/c1ccccc1)Nc1ccc(S(=O)(=O)Nc2ccccn2)cc1 [G′′′]	180

Same assay, conditions: Rattus norvegicus, Neuron, compound concentration 40 μM; midbrain culture; read-out: DA uptake % of control

Compound	activity at 40 µM [%]
O=C(/C=C/c1ccco1)Nc1ccc(S(=O)(=O)Nc2ccco2)cc1 [G]	190
COc1ccc(/C=C/C(=O)Nc2ccc(S(=O)(=O)Nc3cc(C)nc(C)n3)cc2)cc1OC [Y]	160
O=C(Nc1ccc(S(=O)(=O)Nc2nccs2)cc1)c1cncc(Br)c1 [V′]	130

Same assay, conditions: Rattus norvegicus, Neuron; midbrain culture, FIG. 36; read-out: half-maximal effective concentration (EC50) for DA uptake stimulation

EC50 [nM]	Compound
~200	O=C(/C=C/c1ccc(Br)cc1)Nc1ccc(S(=O)(=O)Nc2nc[nH]n2)cc1 [X′]

Same assay, conditions: compound concentration 1.25 μM; midbrain culture; 1.25 µM

Compound	DA uptake % of control
O=C(/C=C/c1c(Cl)cccc1Cl)Nc1ccc(S(=O)(=O)Nc2nccs2)cc1 [C′′′′′]	310% of control
